Where a SMILES comes first, the peptide text is derived from it. Bridges are numbered along the chain shown (N, C = ends). [ ]: non-standard residue; d: D form. The star is where a group is joined. Phe(3-CF3) = N[C@@H](Cc1cccc(C(F)(F)F)c1)C(=O)O; Phe(4-COOH) = N[C@@H](Cc1ccc(C(=O)O)cc1)C(=O)O; Bip = N[C@@H](Cc1ccc(-c2ccccc2)cc1)C(=O)O; Phe(3-Me) = Cc1cccc(C[C@H](N)C(=O)O)c1; 3Pal = N[C@@H](Cc1cccnc1)C(=O)O; 4Pal = N[C@@H](Cc1ccncc1)C(=O)O; Cha = N[C@@H](CC1CCCCC1)C(=O)O; Cit = NC(=O)NCCC[C@H](N)C(=O)O; Carboxymethyl = O=C(O)C*; Orn = NCCC[C@H](N)C(=O)O; Dab = NCC[C@H](N)C(=O)O; Dap = NC[C@H](N)C(=O)O
What follows are compounds tested against T1, human PD-1 / PD-L1-Ig binding on Jurkat cell line over-expressing human PD-1 (Jurkat-PD-1) (Homo sapiens, UniProt Q15116) (assay: Jurkat-PD-1 Cell Binding High-Content Screening Assay (CBA)). Conditions: Jurkat HPD1_PDL1 IC50, Jurkat-PD-1 cells, PE-labeled PD-L1-Ig 20 nM final.
T1 construct: expressed in transfected cells; host or cells: Jurkat
T1 sequence (Q15116 25-288): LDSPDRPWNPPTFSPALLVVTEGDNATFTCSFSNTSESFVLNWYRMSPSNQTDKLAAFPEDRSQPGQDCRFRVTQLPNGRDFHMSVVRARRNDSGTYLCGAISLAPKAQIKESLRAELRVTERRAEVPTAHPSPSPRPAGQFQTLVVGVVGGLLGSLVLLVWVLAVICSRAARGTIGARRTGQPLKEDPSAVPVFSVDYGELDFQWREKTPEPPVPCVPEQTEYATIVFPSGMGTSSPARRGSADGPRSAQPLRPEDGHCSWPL
Assay type: cell-based
Method in brief: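 Jurkat cells over-expressing human PD-1, in DMEM/10% FCS, pre-incubated with compound 2 h at 37° C. PE-labeled human PD-L1-Ig (20 nM final) added for 1 h; cells fixed in paraformaldehyde with Hoechst 33342 nuclear stain, washed, and bound fluorescence quantified by high-content imaging.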

**Q.** `CC[C@H](C)[C@@H]1NC(=O)[C@H](Cc2ccc(-c3ccccc3)cc2)NC(=O)[C@H](C(C)C)NC(=O)[C@H](Cc2cccc(Cl)c2)NC(=O)[C@H](CC(=O)O)NC(=O)[C@H](Cc2ccc(C(=O)O)cc2)NC(=O)[C@H](Cc2ccncc2)NC(=O)CSC[C@@H](C(=O)N[C@@H](C)C(N)=O)NC(=O)[C@H]([C@@H](C)O)NC(=O)[C@H](C(C)C)NC(=O)[C@H](CC2CCCCC2)NC(=O)[C@H](CCN)NC(=O)[C@@H](CC(C)C)NC(=O)[C@H](CCCN)NC1=O` [Compound 1558] was tested. Which IC50 did it give?
**A.** 15.8 nM

**Q.** `CC[C@H](C)[C@@H]1NC(=O)[C@H](Cc2ccc(-c3ccccc3)cc2)NC(=O)[C@H](C(C)C)NC(=O)[C@H](Cc2cccc(C(F)(F)F)c2)NC(=O)[C@H](CC(=O)O)NC(=O)[C@H](Cc2ccc(OCC(=O)O)cc2)NC(=O)[C@H](Cc2ccncc2)NC(=O)CSC[C@@H](C(=O)N[C@@H](C)C(N)=O)NC(=O)[C@H]([C@@H](C)O)NC(=O)[C@H](C(C)C)NC(=O)[C@H](CC2CCCCC2)NC(=O)[C@H](CCN)NC(=O)[C@@H](CC(C)C)NC(=O)[C@H](CCCN)NC1=O` [Compound 1567] was tested. Which IC50 did it give?
**A.** 25.8 nM

Same assay, conditions: Jurkat-PD-1 cells, PE-labeled PD-L1-Ig 20 nM final; read-out: Jurkat HPD1_PDL1 IC50

**Q.** Which IC50 does the source give for `Cc1cccc(C[C@@H]2NC(=O)[C@H](CC(=O)O)NC(=O)[C@H](Cc3ccc(C(=O)O)cc3)NC(=O)[C@H](Cc3ccncc3)NC(=O)CSC[C@@H](C(N)=O)NC(=O)[C@H]([C@@H](C)O)NC(=O)[C@H](C(C)C)NC(=O)[C@H](CC3CCCCC3)NC(=O)[C@H](CCN)NC(=O)[C@@H](CC(C)C)NC(=O)[C@H](CCCN)NC(=O)[C@H](C(C)C)NC(=O)[C@H](Cc3ccc(-c4ccccc4)cc3)NC(=O)[C@H](C(C)C)NC2=O)c1` [Compound 1548] ({CH2CO}-[4Pal][Phe(4-COOH)]D[Phe(3-Me)]V[Bip]V[Orn][dL][Dab][Cha]VTC-NH2; thioether N-14) here?
**A.** 18.4 nM

**Q.** Which IC50 does the source give for `Cc1cccc(C[C@@H]2NC(=O)[C@H](CC(=O)O)NC(=O)[C@H](Cc3ccc(C(=O)O)cc3)NC(=O)[C@H](Cc3ccncc3)NC(=O)CSC[C@@H](C(N)=O)NC(=O)[C@H]([C@@H](C)O)NC(=O)[C@H](C(C)C)NC(=O)[C@H](CC3CCCCC3)NC(=O)[C@H](CCN)NC(=O)[C@@H](CC(C)C)NC(=O)[C@H](CCCN)NC(=O)[C@H](CCCNC(N)=O)NC(=O)[C@H](Cc3ccc(-c4ccccc4)cc3)NC(=O)[C@H](C(C)C)NC2=O)c1` [Compound 1549] ({CH2CO}-[4Pal][Phe(4-COOH)]D[Phe(3-Me)]V[Bip][Cit][Orn][dL][Dab][Cha]VTC-NH2; thioether N-14) here?
**A.** 10.9 nM

**Q.** With `Cc1cccc(C[C@@H]2NC(=O)[C@H](CC(=O)O)NC(=O)[C@H](Cc3ccncc3)NC(=O)[C@H](CN)NC(=O)CSC[C@@H](C(N)=O)NC(=O)[C@H]([C@@H](C)O)NC(=O)[C@H](C(C)C)NC(=O)[C@H](CC(C)C)NC(=O)[C@H](CCN)NC(=O)[C@@H](CC(C)C)NC(=O)[C@H](CCCN)NC(=O)[C@H](C(C)C)NC(=O)[C@H](Cc3ccc(-c4ccccc4)cc3)NC(=O)[C@H](C(C)C)NC2=O)c1` [Compound 1550] ({CH2CO}-[Dap][4Pal]D[Phe(3-Me)]V[Bip]V[Orn][dL][Dab]LVTC-NH2; thioether N-14) as the compound, how does the IC50 read?
**A.** 94.5 nM

**Q.** `Cc1cccc(C[C@@H]2NC(=O)[C@H](CC(=O)O)NC(=O)[C@H](Cc3ccc(C(=O)O)cc3)NC(=O)[C@H](Cc3ccc(OCC(=O)O)cc3)NC(=O)CSC[C@@H](C(N)=O)NC(=O)[C@H]([C@@H](C)O)NC(=O)[C@H](C(C)C)NC(=O)[C@H](CC(C)C)NC(=O)[C@H](CCN)NC(=O)[C@@H](CC(C)C)NC(=O)[C@H](CCCN)NC(=O)[C@H](C(C)C)NC(=O)[C@H](Cc3ccc(-c4ccccc4)cc3)NC(=O)[C@H](C(C)C)NC2=O)c1` [Compound 1551] ({CH2CO}-Y(Carboxymethyl)[Phe(4-COOH)]D[Phe(3-Me)]V[Bip]V[Orn][dL][Dab]LVTC-NH2; thioether N-14) was tested. Which IC50 did it give?
**A.** 15.6 nM

**Q.** With `Cc1cccc(C[C@@H]2NC(=O)[C@H](CC(=O)O)NC(=O)[C@H](Cc3ccc(C(=O)O)cc3)NC(=O)[C@H](Cc3ccncc3)NC(=O)CSC[C@@H](C(N)=O)NC(=O)[C@H]([C@@H](C)O)NC(=O)[C@H](C(C)C)NC(=O)[C@H](CC3CCCCC3)NC(=O)[C@H](CCN)NC(=O)[C@@H](CC(C)C)NC(=O)[C@H](CCCN)NC(=O)[C@H](CCC(=O)O)NC(=O)[C@H](Cc3ccc(-c4ccccc4)cc3)NC(=O)[C@H](C(C)C)NC2=O)c1` [Compound 1552] ({CH2CO}-[4Pal][Phe(4-COOH)]D[Phe(3-Me)]V[Bip]E[Orn][dL][Dab][Cha]VTC-NH2; thioether N-14) as the compound, how does the IC50 read?
**A.** 21.8 nM

**Q.** `Cc1cccc(C[C@@H]2NC(=O)[C@H](CC(=O)O)NC(=O)[C@H](Cc3ccc(OCC(=O)O)cc3)NC(=O)[C@H](Cc3cccnc3)NC(=O)CSC[C@@H](C(N)=O)NC(=O)[C@H]([C@@H](C)O)NC(=O)[C@H](C(C)C)NC(=O)[C@H](CC(C)C)NC(=O)[C@H](CCN)NC(=O)[C@@H](CC(C)C)NC(=O)[C@H](CCCN)NC(=O)[C@H](C(C)C)NC(=O)[C@H](Cc3ccc(-c4ccccc4)cc3)NC(=O)[C@H](C(C)C)NC2=O)c1` [Compound 1553] ({CH2CO}-[3Pal]Y(Carboxymethyl)D[Phe(3-Me)]V[Bip]V[Orn][dL][Dab]LVTC-NH2; thioether N-14) was tested. Which IC50 did it give?
**A.** 26.9 nM

**Q.** With `CC[C@H](C)[C@@H]1NC(=O)[C@H](Cc2ccc(-c3ccccc3)cc2)NC(=O)[C@H](C(C)C)NC(=O)[C@H](Cc2cccc(C)c2)NC(=O)[C@H](CC(=O)O)NC(=O)[C@H](Cc2ccncc2)NC(=O)[C@H](CN)NC(=O)CSC[C@@H](C(N)=O)NC(=O)[C@H]([C@@H](C)O)NC(=O)[C@H](C(C)C)NC(=O)[C@H](CC(C)C)NC(=O)[C@H](CCN)NC(=O)[C@@H](CC(C)C)NC(=O)[C@H](CCCN)NC1=O` [Compound 1554] ({CH2CO}-[Dap][4Pal]D[Phe(3-Me)]V[Bip]I[Orn][dL][Dab]LVTC-NH2; thioether N-14) as the compound, how does the IC50 read?
**A.** 96.2 nM

**Q.** For `CC[C@H](C)[C@@H]1NC(=O)[C@H](Cc2ccc(-c3ccccc3)cc2)NC(=O)[C@H](C(C)C)NC(=O)[C@H](Cc2cccc(C)c2)NC(=O)[C@H](CC(=O)O)NC(=O)[C@H](Cc2ccc(C(=O)O)cc2)NC(=O)[C@H](Cc2ccc(OCC(=O)O)cc2)NC(=O)CSC[C@@H](C(N)=O)NC(=O)[C@H]([C@@H](C)O)NC(=O)[C@H](C(C)C)NC(=O)[C@H](CC(C)C)NC(=O)[C@H](CCN)NC(=O)[C@@H](CC(C)C)NC(=O)[C@H](CCCN)NC1=O` [Compound 1555] ({CH2CO}-Y(Carboxymethyl)[Phe(4-COOH)]D[Phe(3-Me)]V[Bip]I[Orn][dL][Dab]LVTC-NH2; thioether N-14), which IC50 is on record?
**A.** 43.3 nM

**Q.** For `Cc1cccc(C[C@@H]2NC(=O)[C@H](CC(=O)O)NC(=O)[C@H](Cc3ccc(C(=O)O)cc3)NC(=O)[C@H](Cc3ccc(OCC(=O)O)cc3)NC(=O)CSC[C@@H](C(N)=O)NC(=O)[C@H]([C@@H](C)O)NC(=O)[C@H](C(C)C)NC(=O)[C@H](CC(C)C)NC(=O)[C@H](CCN)NC(=O)[C@@H](CC(C)C)NC(=O)[C@H](CCCN)NC(=O)[C@H](CCC(=O)O)NC(=O)[C@H](Cc3ccc(-c4ccccc4)cc3)NC(=O)[C@H](C(C)C)NC2=O)c1` [Compound 1556] ({CH2CO}-Y(Carboxymethyl)[Phe(4-COOH)]D[Phe(3-Me)]V[Bip]E[Orn][dL][Dab]LVTC-NH2; thioether N-14), which IC50 is on record?
**A.** 90.9 nM

**Q.** Which IC50 does the source give for `Cc1cccc(C[C@@H]2NC(=O)[C@H](CC(=O)O)NC(=O)[C@H](Cc3ccc(C(=O)O)cc3)NC(=O)[C@H](Cc3ccc(OCC(=O)O)cc3)NC(=O)CSC[C@@H](C(N)=O)NC(=O)[C@H]([C@@H](C)O)NC(=O)[C@H](C(C)C)NC(=O)[C@H](CC(C)C)NC(=O)[C@H](CCN)NC(=O)[C@@H](CC(C)C)NC(=O)[C@H](CCCN)NC(=O)[C@H](CCCNC(N)=O)NC(=O)[C@H](Cc3ccc(-c4ccccc4)cc3)NC(=O)[C@H](C(C)C)NC2=O)c1` [Compound 1557] ({CH2CO}-Y(Carboxymethyl)[Phe(4-COOH)]D[Phe(3-Me)]V[Bip][Cit][Orn][dL][Dab]LVTC-NH2; thioether N-14) here?
**A.** 37.9 nM

**Q.** With `CC[C@H](C)[C@@H]1NC(=O)[C@H](Cc2ccc(-c3ccccc3)cc2)NC(=O)[C@H](C(C)C)NC(=O)[C@H](Cc2cccc(C)c2)NC(=O)[C@H](CC(=O)O)NC(=O)[C@H](Cc2ccncc2)NC(=O)[C@H](CN)NC(=O)CSC[C@@H](C(=O)N[C@@H](C)C(N)=O)NC(=O)[C@H]([C@@H](C)O)NC(=O)[C@H](C(C)C)NC(=O)[C@H](CC2CCCCC2)NC(=O)[C@H](CCN)NC(=O)[C@@H](CC(C)C)NC(=O)[C@H](CCCN)NC1=O` [Compound 1561] as the compound, how does the IC50 read?
**A.** 16.2 nM

**Q.** How did the IC50 turn out when `CC[C@H](C)[C@@H]1NC(=O)[C@H](Cc2ccc(-c3ccccc3)cc2)NC(=O)[C@H](C(C)C)NC(=O)[C@H](Cc2cccc(Cl)c2)NC(=O)[C@H](CC(=O)O)NC(=O)[C@H](Cc2ccncc2)NC(=O)[C@H](CN)NC(=O)CSC[C@@H](C(=O)N[C@@H](C)C(N)=O)NC(=O)[C@H]([C@@H](C)O)NC(=O)[C@H](C(C)C)NC(=O)[C@H](CC2CCCCC2)NC(=O)[C@H](CCN)NC(=O)[C@@H](CC(C)C)NC(=O)[C@H](CCCN)NC1=O` [Compound 1562] was run?
**A.** 20.2 nM

**Q.** Which IC50 does the source give for `CC[C@H](C)[C@@H]1NC(=O)[C@H](Cc2ccc(-c3ccccc3)cc2)NC(=O)[C@H](C(C)C)NC(=O)[C@H](Cc2cccc(OC)c2)NC(=O)[C@H](CC(=O)O)NC(=O)[C@H](Cc2ccncc2)NC(=O)[C@H](CN)NC(=O)CSC[C@@H](C(=O)N[C@@H](C)C(N)=O)NC(=O)[C@H]([C@@H](C)O)NC(=O)[C@H](C(C)C)NC(=O)[C@H](CC2CCCCC2)NC(=O)[C@H](CCN)NC(=O)[C@@H](CC(C)C)NC(=O)[C@H](CCCN)NC1=O` [Compound 1563] here?
**A.** 10.7 nM

**Q.** For `CC[C@H](C)[C@@H]1NC(=O)[C@H](Cc2ccc(-c3ccccc3)cc2)NC(=O)[C@H](C(C)C)NC(=O)[C@H](Cc2cccc(C(F)(F)F)c2)NC(=O)[C@H](CC(=O)O)NC(=O)[C@H](Cc2ccncc2)NC(=O)[C@H](CN)NC(=O)CSC[C@@H](C(=O)N[C@@H](C)C(N)=O)NC(=O)[C@H]([C@@H](C)O)NC(=O)[C@H](C(C)C)NC(=O)[C@H](CC2CCCCC2)NC(=O)[C@H](CCN)NC(=O)[C@@H](CC(C)C)NC(=O)[C@H](CCCN)NC1=O` [Compound 1564] ({CH2CO}-[Dap][4Pal]D[Phe(3-CF3)]V[Bip]I[Orn][dL][Dab][Cha]VTCA-NH2; thioether N-14), which IC50 is on record?
**A.** 36.1 nM

— patent publication US20250163104A1, “MACROCYCLIC IMMUNOMODULATORS” (priority 2021, published 2025)
